Experimental data published in ChEMBL document CHEMBL3430912, “GSK Tres Cantos Anti-Kinetoplastid Screening (TCAKS) Data”.

Assays:
[1] = biological target: Sterol 14-alpha demethylase (Trypanosoma cruzi (strain CL Brener), UniProt Q7Z1V1); assay: GSK_TCAKS: pIC50 CYP51 from Trypanosoma cruzi.; type: functional
[2] = GSK_TCAKS: pIC50 HepG2 human cell line viability assay using luminiscence. […] Seeding density was checked to ensure that new mono-layers were not more than 50% confluent at the time of harvesting. Cell suspension was added to 500 mL of the same medium at a final density of 1.2 * 10^5 cells/mL. This cell suspension was dispensed (25 uL, 3000 cells per well) into 384-well clear-bottom plates using a Multidrop Combi dispenser. Prior to addition of the cell suspension, the screening compounds (250 nL) were pre-dispensed into the plates with an Echo liquid handler. Plates were incubated for 48 h at 37C, 5% CO2. After incubation, plates equilibrated at room temperature for 30 min before proceeding to develop the luminescent signal. The signal developer, CellTiter-Glo Reagent, was allowed to equilibrate at room temperature for 30 min and added to the plates (25uL per well) using a Multidrop Combi dispenser. Plates were left for 10 min at room temperature for stabilization and then read using a ViewLux.; type: toxicity, cell-based
Leishmania donovani [3] = assay: (§1) GSK_TCAKS: pIC50 Leishmania donovani Imaging: Infected Macrophages. Assay plates (384-well) were prepared by adding 250nL of compound to each well. For single shot assay, the final compound concentration was 5 uM. […] Automated image analysis was performed with a script developed on Acapella High Content Imaging and Analysis Software (PerkinElmer). Output: Percent of infected macrophage cells were reported for each well.; type: functional, organism-based, Homo sapiens; conditions: THP-1
Trypanosoma cruzi [4] = assay: (§2) GSK_TCAKS: pIC50 Trypanosoma cruzi Imaging: Infected Cells. […] Cells were then washed once with PBS before infection. T. cruzi trypomastigotes, collected at days 5 to 8 after infection from LLC-MK2 parasite infected cultures, were allowed to swim out for 4h at 37C from a centrifuged pellet (2,500 rpm/10 min/room temperature). Trypomastigotes were then collected and counted in a CASY Cell Counter. Trypomastigotes, in supplemented DMEM, were added to H9c2 cultures in a multiplicity of infection of 1 and incubated for 18 h. Cells were washed once with PBS before incubation of the infected H9c2 monolayer with trypsin (Life-Technologies) to detach cells from the flask. Cells were counted in a CASY Cell Counter using a 150 um capillary and their density set at 5 * 10^4 cells per mL in supplemented assay DMEM. Infected H9c2 were dispensed into 384-well poly-lysine coated assay plates at 50uL per well using a Multidrop Combi dispenser. After seeding them, the plates were incubated at 37C, 5% CO2 for 72h. Cultures were then fixed and stained by addition of 50 uL of a solution containing 8% formaldehyde and 4 uM DRAQ5 DNA dye (BioStatus, UK) per well. […] Five images were collected per well for reliable statistical analysis. Automated image analysis was performed with a script developed on Acapella High Content Imaging and Analysis Software (PerkinElmer). Output: percentage of infected cells per well as a second infection marker.; type: functional, organism-based, Rattus norvegicus; conditions: H9c2, 4 h
Leishmania donovani [5] = assay: as §1, with “THP-1 Host” for “Infected”, “THP-1 cell count” for “Percent of infected macrophage cells”; type: functional, organism-based, Homo sapiens
Trypanosoma cruzi [6] = assay: as §2, with “H2C9” for “Trypanosoma cruzi”, “H9c2 Host Cardiomyocytes.” for “Infected Cells.”, “Number” for “percentage”, “H9c2 Host Cardiomyocytes nuclei to determine drug-related cytotoxicity.” for “infected cells per well as a second infection marker.”; type: functional, organism-based, Rattus norvegicus; conditions: H9c2, 4 h
Trypanosoma cruzi [7] = assay: GSK_TCAKS: pIC50 Trypanosoma cruzi Imaging: Amastigotes/Cell. […] Cells were then washed once with PBS before infection. T. cruzi trypomastigotes, collected at days 5 to 8 after infection from LLC-MK2 parasite infected cultures, were allowed to swim out for 4h at 37C from a centrifuged pellet (2,500 rpm/10 min/room temperature). Trypomastigotes were then collected and counted in a CASY Cell Counter. Trypomastigotes, in supplemented DMEM, were added to H9c2 cultures in a multiplicity of infection of 1 and incubated for 18 h. Cells were washed once with PBS before incubation of the infected H9c2 monolayer with trypsin (Life-Technologies) to detach cells from the flask. Cells were counted in a CASY Cell Counter using a 150 um capillary and their density set at 5 * 10^4 cells per mL in supplemented assay DMEM. Infected H9c2 were dispensed into 384-well poly-lysine coated assay plates at 50uL per well using a Multidrop Combi dispenser. After seeding them, the plates were incubated at 37C, 5% CO2 for 72h. Cultures were then fixed and stained by addition of 50 uL of a solution containing 8% formaldehyde and 4 uM DRAQ5 DNA dye (BioStatus, UK) per well. […] Five images were collected per well for reliable statistical analysis. Automated image analysis was performed with a script developed on Acapella High Content Imaging and Analysis Software (PerkinElmer). Output: number of amastigotes per cell as infection level measurement.; type: functional, organism-based, Rattus norvegicus; conditions: H9c2, 4 h
[8] = system: Trypanosoma brucei brucei; assay: GSK_TCAKS: pIC50 Trypanosoma brucei viability assay using fluorescence intensity. Assay plates (1536-well) were prepared by dispensing 25nL of compound solution per well using an Echo acoustic dispenser (Labcyte).; type: functional, organism-based; conditions: Lister 427, 2 h
Leishmania donovani [9] = assay: GSK_TCAKS: pIC50 Leishmania donovani viability assay using fluorescence intensity. Assay plates (1536-well) were prepared by adding 30nL per well of compound. For single shot assay, the final compound concentration was 5uM. […] Briefly, eGFP LdBOB axenic amastigotes were harvested, fixed and counted in a CASY cell counter (Roche-Applied Science). A final concentration of 1.5 * 10^5 cells per well were prepared in amastigote media containing 500 U/mL penicillin/streptomycin (Invitrogen) and 6uL was dispensed to each experimental well using a Multidrop Combi dispenser (Thermo Scientific). 6uL of assay media was dispensed to control columns used as reference for 100% compound response. Following incubation for 72 h at 37C, 5% CO2, 2 uL of resazurin was added to each well at a final concentration of 0.5 mM in phosphate buffered saline (PBS) with IGEPAL (Sigma-Aldrich), 0.05% (v/v).; type: functional, organism-based
[10] = system: Trypanosoma brucei brucei; assay: GSK_TCAKS: pIC50 Trypanosoma brucei viability assay using luminiscence. Assay plates (1536-well) were prepared. T. brucei cultures were harvested and counted in a CASY cell counter. A parasite suspension was prepared at a final concentration of 5 * 10^4 cells/mL in complete HMI9 medium and 6uL was dispensed to all wells containing compounds using a Multidrop Combi dispenser. 6uL of HMI9 media with 0.4% DMSO were dispensed to control columns. Plates were incubated for 24 h at 37C, 5% CO2 then tempered for 10 min at room temperature. ATP content was quantified by adding 4 uL of CellTiter-Glo Reagent (Promega) according to the manufacturer's instructions. Luminescence was measured using a ViewLux.; type: functional, organism-based; conditions: Lister 427, CASY
Trypanosoma cruzi [11] = assay: GSK_TCAKS: pIC50 Trypanosoma cruzi viability assay using beta-GAL activity. This assay was run at single shot at 5uM compound concentration per well. The biological reagents consisted of NIH-3T3 host cells and trypomastigotes parasitic cells; both cell types were set to a 3.3 * 10^5 cells/mL dilution in assay DMEM by means of a CASY cell counter device using a 60um capillary. 6 uL of the mixture were dispensed per well (about 1 * 10^3 host-cells and 1 * 10^3 parasites) with a Multidrop Combi dispenser. […] In all wells, the percentage of DMSO never exceeded 0.5%. Plates incubated for four days at 37C, 5% CO2. The substrate used for the assay fluorescence intensity (FLINT) readout was resorufin-beta-D-galactopiranoside (Sigma-Aldrich) at 5uM per well. It was diluted in PBS supplemented with the soft detergent Igepal (Fluka).; type: functional, organism-based, Mus musculus; conditions: Tulahuen, NIH3T3
Leishmania donovani [12] = assay: as §1, with “Amastigotes/Macrophages.” for “Infected Macrophages.”, “Average number” for “Percent”, “amastigotes per” for “infected”, “cell” for “cells”; type: functional, organism-based, Homo sapiens; conditions: THP-1
NIH3T3 = assay: GSK_TCAKS: pIC50 NIH 3T3 cell line viability assay using luminiscence. Tissue culture surface treated assay plates (1536-well) were used. […] The 100% cells survival control was determined exposing the host-cells to a 0.5% DMSO concentration, whereas the 100% toxicity control was achieved by seeding the cells in presence of Amphotericin B at 50uM. Plates were incubated for four days at 37C, 5% CO2. The assay readout was developed by addition of 5uL of CellTiter-Glo Reagent following the manufacturer's instructions. Luminiscence was measured using a ViewLux.; type: functional, cell-based; conditions: Mus musculus, NIH3T3, 96 h

Sequence of Sterol 14-alpha demethylase (Q7Z1V1 whole entry): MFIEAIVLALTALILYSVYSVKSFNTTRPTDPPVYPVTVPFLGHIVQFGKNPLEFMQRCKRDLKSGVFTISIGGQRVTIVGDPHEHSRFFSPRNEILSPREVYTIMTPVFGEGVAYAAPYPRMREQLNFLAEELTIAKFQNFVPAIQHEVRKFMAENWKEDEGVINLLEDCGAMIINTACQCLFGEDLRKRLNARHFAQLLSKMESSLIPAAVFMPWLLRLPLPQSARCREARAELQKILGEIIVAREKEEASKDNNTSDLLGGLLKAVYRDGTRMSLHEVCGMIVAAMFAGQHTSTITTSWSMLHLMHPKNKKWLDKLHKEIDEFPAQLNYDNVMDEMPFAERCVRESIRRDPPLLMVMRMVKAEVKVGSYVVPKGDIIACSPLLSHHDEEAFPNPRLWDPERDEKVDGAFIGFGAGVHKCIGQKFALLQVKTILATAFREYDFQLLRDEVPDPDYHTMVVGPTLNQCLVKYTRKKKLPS

## O=C(NCc1ccncc1)c1ccccc1N1CCCN(C(=O)Cc2ccc(F)c(F)c2)CC1
[1]
  IC50: 0.0794 µM
[2]
  IC50 at 48 h: > 100 µM
Leishmania donovani [3]
  IC50: > 50.1 µM
Trypanosoma cruzi [4]
  IC50: 0.0794 µM
Leishmania donovani [5]
  IC50: > 50.1 µM
Trypanosoma cruzi [6]
  IC50: > 50.1 µM
Trypanosoma cruzi [7]
  IC50: 0.0794 µM
[8]
  IC50: 6.31 µM
Leishmania donovani [9]
  IC50: 2.51 µM
[10]
  IC50: 20 µM
Trypanosoma cruzi [11]
  IC50: 0.126 µM
Leishmania donovani [12]
  IC50: > 50.1 µM
NIH3T3
  IC50: 15.8 µM

## COc1ccc(S(=O)(=O)Nc2ccccc2OC)cc1NC(=O)CCCc1c[nH]c2ccccc12
[1]
  IC50: > 100 µM
[2]
  IC50 at 48 h: > 100 µM
Leishmania donovani [3]
  IC50: > 50.1 µM
Trypanosoma cruzi [4]
  IC50: 1.26 µM
Leishmania donovani [5]
  IC50: > 50.1 µM
Trypanosoma cruzi [6]
  IC50: > 50.1 µM
Trypanosoma cruzi [7]
  IC50: 1 µM
[8]
  IC50: 12.6 µM
Leishmania donovani [9]
  IC50: 25.1 µM
[10]
  IC50: 31.6 µM
Trypanosoma cruzi [11]
  IC50: 1.58 µM
Leishmania donovani [12]
  IC50: > 50.1 µM
NIH3T3
  IC50: > 50.1 µM

## Cc1nn(C2CCS(=O)(=O)C2)c(C)c1CN(C)C(=O)C=Cc1sc2ccccc2c1Cl (stereo unspecified)
[1]
  IC50: 0.0316 µM
[2]
  IC50 at 48 h: > 100 µM
Leishmania donovani [3]
  IC50: 39.8 µM
Trypanosoma cruzi [4]
  IC50: 0.501 µM
Leishmania donovani [5]
  IC50: 20 µM
Trypanosoma cruzi [6]
  IC50: > 50.1 µM
Trypanosoma cruzi [7]
  IC50: 0.316 µM
[8]
  IC50: 10 µM
Leishmania donovani [9]
  IC50: 12.6 µM
[10]
  IC50: 25.1 µM
Trypanosoma cruzi [11]
  IC50: 0.631 µM
Leishmania donovani [12]
  IC50: 12.6 µM
NIH3T3
  IC50: > 50.1 µM

## COc1ccc2c(Cl)c(C(=O)N3CCC3)sc2c1Cl
[1]
  IC50: > 100 µM
[2]
  IC50 at 48 h: > 100 µM
Leishmania donovani [3]
  IC50: > 50.1 µM
Trypanosoma cruzi [4]
  IC50: 2.51 µM
Leishmania donovani [5]
  IC50: > 50.1 µM
Trypanosoma cruzi [6]
  IC50: > 50.1 µM
Trypanosoma cruzi [7]
  IC50: 0.794 µM
[8]
  IC50: 20 µM
Leishmania donovani [9]
  IC50: > 50.1 µM
[10]
  IC50: > 39.8 µM
Trypanosoma cruzi [11]
  IC50: 0.447 µM
Leishmania donovani [12]
  IC50: > 50.1 µM
NIH3T3
  IC50: > 50.1 µM

## Cc1cc(C)nc(N2CCC(N(Cc3cccnc3)C(=O)c3cccc(C#N)c3)CC2)n1
[1]
  IC50: 0.126 µM
[2]
  IC50 at 48 h: > 100 µM
Leishmania donovani [3]
  IC50: > 50.1 µM
Trypanosoma cruzi [4]
  IC50: 0.316 µM
Leishmania donovani [5]
  IC50: > 50.1 µM
Trypanosoma cruzi [6]
  IC50: > 50.1 µM
Trypanosoma cruzi [7]
  IC50: 0.398 µM
[8]
  IC50: > 39.8 µM
Leishmania donovani [9]
  IC50: 5.01 µM
[10]
  IC50: > 39.8 µM
Trypanosoma cruzi [11]
  IC50: 0.316 µM
Leishmania donovani [12]
  IC50: > 50.1 µM
NIH3T3
  IC50: 7.94 µM

## CCN(CC)S(=O)(=O)c1ccc(C(=O)Nc2cc(C)nn2-c2nc(C)c(C)c(=O)[nH]2)cc1
[1]
  IC50: > 100 µM
[2]
  IC50 at 48 h: > 100 µM
Leishmania donovani [3]
  IC50: > 50.1 µM
Trypanosoma cruzi [4]
  IC50: 1.58 µM
Leishmania donovani [5]
  IC50: 3.16 µM
Trypanosoma cruzi [6]
  IC50: > 50.1 µM
Trypanosoma cruzi [7]
  IC50: 0.316 µM
[8]
  IC50: 0.316 µM
Leishmania donovani [9]
  IC50: 0.501 µM
[10]
  IC50: 0.316 µM
Trypanosoma cruzi [11]
  IC50: 0.631 µM
Leishmania donovani [12]
  IC50: > 50.1 µM
NIH3T3
  IC50: > 50.1 µM

## COc1ccc(C(C)(C)C)cc1S(=O)(=O)n1ccnc1
[1]
  IC50: 0.00794 µM
[2]
  IC50 at 48 h: > 100 µM
Leishmania donovani [3]
  IC50: > 50.1 µM
Trypanosoma cruzi [4]
  IC50: 0.2 µM
Leishmania donovani [5]
  IC50: > 50.1 µM
Trypanosoma cruzi [6]
  IC50: > 50.1 µM
Trypanosoma cruzi [7]
  IC50: 0.2 µM
[8]
  IC50: 39.8 µM
Leishmania donovani [9]
  IC50: 39.8 µM
[10]
  IC50: > 39.8 µM
Trypanosoma cruzi [11]
  IC50: 0.141 µM
Leishmania donovani [12]
  IC50: 25.1 µM
NIH3T3
  IC50: > 50.1 µM
